# Source: patent publication US10150737B2, “Compounds for controlling arthropods” (priority 2013, dated 2018)
# Experiments:
# [1] = tested on: Ctenocephalides felis; experiment: Ctenocephalides felis - in vitro contact tests with adult cat fleas; assay type: in vivo; conditions: application rate 5 μg/cm2 (=500 g/ha); after 48 h; fleas dead or moribund
# Summary of the method: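 Efficacy, as percentage of fleas dead or moribund, was scored at 48 h by knocking fleas to the tube base. Exposure was by contact with a dried acetone film of compound at 5 μg/cm^2 area dose; 5–10 adults per tube, room temperature, ambient humidity.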
# [2] = tested on: Myzus persicae; experiment: Myzus persicae - spray test; assay type: in vivo; conditions: Chinese cabbage leaf discs, after 6 days
# Summary of the method: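 Mortality of the green peach aphid, as % killed, was read 6 days after spraying infested Brassica pekinensis leaf discs. Compound formulated in acetone/dimethylformamide and made up with emulsifier-containing (1000 ppm) water.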
# [3] = tested on: Ctenocephalides felis; experiment: Ctenocephalides felis - oral test; assay type: in vivo; conditions: application rate 100 ppm in citrated cattle blood; after 2 days
# Summary of the method: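 Roughly 20 unfed adult C. felis imbibe compound-dosed citrated cattle blood (DMSO formulation) across parafilm from a cylinder above their gauze chamber; percentage mortality recorded at day 2.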
# [4] = tested on: Amblyomma hebraeum; experiment: Amblyomma hebaraeum test (tick nymphs, immersion); assay type: in vivo; conditions: application rate 100 ppm; tick nymphs immersed one minute; after 42 days
# Method: Solvent: dimethyl sulphoxide
# To produce an appropriate active ingredient formulation, 10 mg of active ingredient are mixed with 0.5 ml of dimethyl sulphoxide, and the concentrate is diluted with water to the desired concentration.
# Tick nymphs (Amblyomma hebraeum) are placed into perforated plastic beakers and immersed in the desired concentration for one minute. The ticks are transferred on filter paper into a Petri dish and stored in a climate-controlled cabinet.
# After 42 days, the kill in % is determined. 100% means that all of the ticks have been killed; 0% means that none of the ticks have been killed.
# [5] = logP determination by HPLC on a reversed-phase column (C18); assay type: physicochemical; conditions: for logP^a): HPLC-MS method a); for log P: HPLC-MS, Table I-T3
# [6] = tested on: Phaedon cochleariae; experiment: Phaedon cochleariae - spray test; assay type: in vivo; conditions: larvae on Chinese cabbage leaf discs, after 7 days
# Summary of the method: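 Mortality of mustard beetle larvae was scored as % at day 7 on Brassica pekinensis leaf discs. Discs had been treated by spraying at the desired concentration, using an acetone/dimethylformamide solution diluted in water with 1000 ppm alkylaryl polyglycol ether, and dried before larvae were added.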
# [7] = tested on: Boophilus microplus Parkhurst strain, SP-resistant; experiment: Boophilus microplus - dip test; assay type: in vivo; conditions: application rate 100 ppm; dip of engorged adult female ticks; after 7 days
# Summary of the method: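 Compound dissolved in DMSO, diluted with water, and used to fully wet groups of 8-10 engorged female cattle ticks (SP-resistant Parkhurst strain). Fertile egg laying assessed at 7 days, doubtful eggs held ~42 days until hatch; 0% means all eggs fertile.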
# [8] = tested on: Boophilus microplus; experiment: Boophilus microplus - injection test; assay type: in vivo; conditions: application rate 20 μg/animal; injection into engorged adult female ticks; after 7 days
# Summary of the method: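 Five engorged adult female cattle ticks each received a 1 μl abdominal injection of compound solution in dimethyl sulphoxide. Fertile egg laying was assessed at 7 days, with doubtful eggs incubated about 42 days until hatch. 0% efficacy means all eggs fertile.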
# [9] = tested on: Tetranychus urticae; experiment: Tetranychus urticae - spray test, OP-resistant; assay type: in vivo; conditions: bean leaf discs, after 6 days
# Summary of the method: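 Mortality (%) read on day 6 after spraying Phaseolus vulgaris leaf discs carrying all mite stages with formulations at the desired concentration. Formulation: active ingredient in acetone plus dimethylformamide, made up with emulsifier-containing water (1000 ppm alkylaryl polyglycol ether).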
# [10] = tested on: Spodoptera frugiperda; experiment: Spodoptera frugiperda - spray test; assay type: in vivo; conditions: caterpillars on maize leaf discs, after 7 days
# Summary of the method: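 Percent mortality of Spodoptera frugiperda caterpillars scored 7 days after placing them on dried maize leaf discs sprayed at the desired concentration. Spray formulation: compound dissolved in acetone/dimethylformamide, made up with water containing 1000 ppm emulsifier.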
# [11] = tested on: Musca domestica; experiment: Musca domestica test; assay type: in vivo; conditions: application rate 100 ppm; adult houseflies; after 2 days
# Summary of the method: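 Water-diluted DMSO stock of compound, mixed onto a sugar-treated sponge, served as the sole exposure route for ten adult houseflies. Kill percentage scored at 2 days.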
# [12] = tested on: Lucilia cuprina; experiment: Lucilia cuprina test; assay type: in vivo; conditions: application rate 100 ppm; L1 larvae; after 2 days
# Summary of the method: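 Mortality (%) of first-instar blowfly larvae, about 20 per vessel, recorded 2 days after exposure to compound-treated minced horsemeat. Compound dissolved in dimethyl sulphoxide, then water-diluted to the desired concentration.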
# [13] = tested on: Rhipicephalus sanguineus; experiment: Rhipicephalus sanguineus - in vitro contact tests with adult brown dog ticks; assay type: in vivo; conditions: after 48 h, ticks dead or moribund
# Summary of the method: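 Efficacy, scored after 48 h, is the % of adult ticks dead or moribund, i.e. unable to climb away on a 45-50° C hotplate within 5 min. Tubes held 5-10 ticks in the dark at room temperature, on an acetone-applied coating of 5 μg/cm^2 (900 ppm solution).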
SMILES,efficacy [1] [%],efficacy ([2]; application rate 100 g/ha) [%],efficacy (kill) [3] [%],efficacy (kill) [4] [%],logP^a) [5],log P ([5]; reversed-phase column (C18)),efficacy ([6]; application rate 100 g/ha) [%],efficacy (laying of fertile eggs) [7] [%],efficacy (laying of fertile eggs) [8] [%],efficacy ([9]; application rate 100 g/ha) [%],efficacy ([10]; application rate 100 g/ha) [%],efficacy ([2]; application rate 500 g/ha) [%],efficacy ([6]; application rate 500 g/ha) [%],efficacy (kill) [11] [%],efficacy (kill) [12] [%],efficacy ([9]; application rate 500 g/ha) [%],efficacy ([10]; application rate 500 g/ha) [%],logP^a) ([5]; reversed-phase column (C18)),efficacy ([13]; application rate 5 μg/cm2) [%],efficacy ([13]; application rate 0.2 μg/cm2) [%]
N#CC1(NC(=O)c2cc(-c3cnn(-c4c(Cl)cc(C(F)(F)F)cc4Cl)c3)cnc2Cl)CC1 [I-T3-95],100,90,100,100,3.1,3.1,100,100,100,100,100,–,–,–,–,–,–,–,–,–
CN(C(=O)c1cc(-c2cnn(-c3c(Cl)cc(C(F)(C(F)(F)F)C(F)(F)F)cc3Cl)c2)cnc1Cl)C1CC1 [I-T3-100],100,–,100,100,4.4,4.4,–,100,100,–,–,100,100,100,100,100,100,–,–,–
Cc1cc(C(F)(C(F)(F)F)C(F)(F)F)cc(C)c1-n1cc(-c2cnc(Cl)c(C(=O)N(C)C3CC3)c2)cn1 [I-T3-101],100,100,100,95,–,4.4,–,100,100,–,–,–,100,100,100,100,83,4.4,–,–
CN(C(=O)c1cc(-c2cnn(-c3c(Cl)cc(C(F)(C(F)(F)F)C(F)(F)F)cc3Cl)c2)cnc1Cl)C1(C#N)CC1 [I-T3-102],100,–,100,90,–,4.3,–,100,100,–,–,–,100,100,100,90,100,4.3,–,–
Cc1cc(C(F)(C(F)(F)F)C(F)(F)F)cc(C)c1-n1cc(-c2cnc(Cl)c(C(=O)N(C)C3(C#N)CC3)c2)cn1 [I-T3-103],100,–,100,90,–,4.3,–,100,100,–,–,90,100,100,100,100,100,4.3,–,–
CCc1cc(C(F)(C(F)(F)F)C(F)(F)F)ccc1-n1cc(-c2cnc(Cl)c(C(=O)NC3CC3)c2)cn1 [I-T3-104],–,–,100,100,–,4.2,–,100,100,–,–,–,100,100,100,90,100,4.2,100,–
CCc1cc(C(F)(C(F)(F)F)C(F)(F)F)ccc1-n1cc(-c2cnc(Cl)c(C(=O)NC3(C#N)CC3)c2)cn1 [I-T3-105],–,–,100,85,–,4.1,–,–,100,–,–,90,100,80,100,90,100,4.1,–,100
Cc1cc(C(F)(C(F)(F)F)C(F)(F)F)cc(C(F)(F)F)c1-n1cc(-c2cnc(Cl)c(C(=O)N(C)C3CC3)c2)cn1 [I-T3-107],100,–,100,100,–,4.5,–,100,100,–,–,100,100,100,100,100,100,4.5,–,–
Cc1cc(C(F)(C(F)(F)F)C(F)(F)F)cc(C(F)(F)F)c1-n1cc(-c2cnc(Cl)c(C(=O)N(C)C3(C#N)CC3)c2)cn1 [I-T3-111],100,–,100,80,–,4.4,–,98,100,90,–,–,100,100,100,–,100,4.4,–,–
CN(C(=O)c1cc(-c2cnn(-c3c(Cl)cc(C(F)(C(F)(F)F)C(F)(F)F)cc3C(F)(F)F)c2)cnc1Cl)C1(C#N)CC1 [I-T3-116],100,100,100,100,–,4.3,–,100,100,–,–,–,100,100,100,90,100,4.3,–,–
Cc1ncc(-c2cnn(-c3c(Cl)cc(C(F)(C(F)(F)F)C(F)(F)F)cc3C(F)(F)F)c2)cc1C(=O)NC1CC1 [I-T3-124],100,100,100,100,–,3.5,100,100,100,100,100,–,–,100,100,–,–,3.5,–,–
Cc1ncc(-c2cnn(-c3c(Cl)cc(C(F)(C(F)(F)F)C(F)(F)F)cc3C(F)(F)F)c2)cc1C(=O)NC1(C#N)CC1 [I-T3-125],100,100,100,100,–,3.8,–,100,100,100,100,–,–,100,100,–,–,3.8,–,–
Cc1ncc(-c2cnn(-c3c(Cl)cc(C(F)(C(F)(F)F)C(F)(F)F)cc3C(F)(F)F)c2)cc1C(=O)N(C)C1(C#N)CC1 [I-T3-131],100,90,100,100,–,3.9,100,100,100,100,100,–,–,100,100,–,–,3.9,–,–
